# Experimental data: patent US6623740B1, “Structurally modified peptides that are resistant to peptidase degradation” (Ludwig Institute for Cancer Research, priority 1997, dated 2003)
# Description: At different times, an aliquot measuring about 150 μl was removed and the enzymatic reaction stopped by addition of 15 μl trifluoroacetic acid (TFA). Precipitated serum proteins were pelleted by centrifugation at 15000 rpm for 10 min at 4° C. The supernatants were frozen and preserved at −20° C. until analysis.
# The peptide and its degradation product(s) were then separated by reverse phase chromatography (RP-HPLC). Peaks corresponding to the different products were quantified. HPLC analysis of the various peptide samples collected at different incubation times was conducted. As well, peptide degradation kinetics including the half-life of the various peptide samples was recorded together with any increase in the degradation products of the peptide samples under investigation.
# The following HPLC conditions were used:
# i) column: 5-μm 4.6 mm×25 cm, C18 (Beckman),
# ii) gradient: 4-20% CH3CN (0.08% TFA in H2O, 0.08% TFA in CH3CN), 0-30 min,
# iii) UV detection: 200-300 nm using a Waters 996 photodiode array detector,
# iv) chromatograms obtained at 225 and 280 nm were also derived.
smiles,measurement,value
C[C@H](NC(=O)[C@@H](N)CCC(=O)O)C(=O)N[C@@H](CC(=O)O)C(=O)N1CCC[C@H]1C(=O)N[C@H](C(=O)NCC(=O)N[C@@H](Cc1c[nH]cn1)C(=O)N[C@@H](CO)C(=O)N[C@@H](Cc1ccc(O)cc1)C(=O)O)[C@@H](C)O [MZ2-E],t ½ of degradation by peptidase present in human serum,½
